Experimental data published in patent publication US4328334A, “11-Aza-10-deoxo-10-dihydroerythromycin A and derivatives thereof as well as a process for their preparation” (PLIVA Pharmaceutical and Chemical Works, priority 1979, dated 1982).
In brackets after ≈: the same amount, converted by molar mass. Like-named read-outs stand apart in the source and are kept apart here.

Key:
[1] = pKb in dimethyl formamide-water; assay type: physicochemical; conditions: dmf (66% v/v)-water; dimethyl formamide (66% v/v)-water
[2] = test system: Salmonella panama; test: in vitro minimum inhibitory concentration, Salmonella panama; assay type: cell-based; conditions: Salmonella enterica, read-out: minimum inhibitory concentrations (MIC)
[3] = test system: Brucella bronchiseptica ATCC 4617; test: microbe, parasite or virus in culture; assay type: cell-based; conditions: Bordetella bronchiseptica, ATCC4617, read-out: minimum inhibitory concentrations (MIC)
[4] = test system: Escherichia coli ATCC 10536; test: in vitro minimum inhibitory concentration, Escherichia coli ATCC 10536; assay type: cell-based; conditions: ATCC10536, read-out: minimum inhibitory concentrations (MIC)
[5] = test system: Pseudomonas aeruginosa NCTC 10490; test: in vitro minimum inhibitory concentration, Pseudomonas aeruginosa NCTC 10490; assay type: cell-based
[6] = test system: Klebsiella pneumoniae ATCC 10031; test: in vitro minimum inhibitory concentration, Klebsiella pneumoniae ATCC 10031; assay type: cell-based
[7] = test system: Streptococcus faecalis ATCC 8043; test: in vitro minimum inhibitory concentration, Streptococcus faecalis ATCC 8043; assay type: cell-based; conditions: Enterococcus faecalis
[8] = test system: Staphylococcus epidermidis ATCC 12228; test: in vitro minimum inhibitory concentration, Staphylococcus epidermidis ATCC 12228; assay type: cell-based
[9] = test system: Shigella flexneri II-1819/C; test: in vitro minimum inhibitory concentration, Shigella flexneri II-1819/C; assay type: cell-based; conditions: II1819/C, read-out: minimum inhibitory concentrations (MIC)
Description: In order to examine the antibacterial action, some new compounds were tested in vitro on a series of gram-positive and gram-negative micro-organisms. The results are shown in Table 1 as minimum inhibitory concentrations (MIC) in mcg/ml in comparision with erythromycin A erythromycin A oxime.

[10] = test system: Bacillus subtilis ATCC 6633; test: in vitro minimum inhibitory concentration, Bacillus subtilis ATCC 6633; assay type: cell-based
[11] = test system: Staphylococcus aureus ATCC 6538-P; test: in vitro minimum inhibitory concentration, Staphylococcus aureus ATCC 6538-P; assay type: cell-based
[12] = test system: Micrococcus flavus ATCC 10240; test: in vitro minimum inhibitory concentration, Micrococcus flavus ATCC 10240; assay type: cell-based
[13] = test system: Sarcina lutea ATCC 9341; test: in vitro minimum inhibitory concentration, Sarcina lutea ATCC 9341; assay type: cell-based; conditions: Micrococcus luteus, ATCC9341, read-out: minimum inhibitory concentrations (MIC)
[14] = test system: Staphylococcus aureus ATCC 6538-P; test: stability in acid medium: MIC after exposure to 1 N HCl; assay type: cell-based; conditions: ATCC6538, pH 1.2, Staphylococcus aureus ATCC 6538-P
[15] = test system: Corynebacterium xerosis NCTC 9755; test: in vitro minimum inhibitory concentration, Corynebacterium xerosis NCTC 9755; assay type: cell-based
[16] = test system: Bacillus cereus var. mycoides ATCC 11778; test: microbe, parasite or virus in culture; assay type: cell-based; conditions: ATCC11778, read-out: minimum inhibitory concentrations (MIC)
[17] = acute i.v. toxicity in albino mice (Litchfield-Wilcoxon); conditions: mouse, in vivo, iv; acute i.v., albino mice
[18] = exposure time 1/2 hour, 1 N HCl
[19] = ATCC8043, in vitro, Streptococcus faecalis ATCC 8043, read-out: minimum inhibitory concentrations (MIC)
[20] = ATCC12228, in vitro, Staphylococcus epidermidis ATCC 12228, read-out: minimum inhibitory concentrations (MIC)
[21] = ATCC6633, in vitro, Bacillus subtilis ATCC 6633, read-out: minimum inhibitory concentrations (MIC)
[22] = ATCC6538, in vitro, Staphylococcus aureus ATCC 6538-P, read-out: minimum inhibitory concentrations (MIC)
[23] = ATCC10240, in vitro, Micrococcus flavus ATCC 10240, read-out: minimum inhibitory concentrations (MIC)

**Q.** With `CCC(=O)O[C@H]1[C@H](O[C@@H]2[C@@H](C)[C@H](O[C@H]3C[C@@](C)(OC)[C@@H](O)[C@H](C)O3)[C@@H](C)C(=O)O[C@H](CC)[C@@](C)(O)[C@H](O)[C@@H](C)N(C(=O)CC)C[C@H](C)C[C@@]2(C)O)O[C@H](C)C[C@@H]1N(C)C` [Example 6, 2',N-dipropionyl-11-aza-10-deoxo-10-dihydroerythromycin A] as the compound, how does the pKa [1] read?
**A.** 6.7

**Q.** Which MIC [2] does the source give for `CC[C@H]1OC(=O)[C@H](C)[C@@H](O[C@H]2C[C@@](C)(OC)[C@@H](O)[C@H](C)O2)[C@H](C)[C@@H](O[C@@H]2O[C@H](C)C[C@H](N(C)C)[C@H]2O)[C@](C)(O)C[C@@H](C)C(=O)[C@H](C)[C@@H](O)[C@]1(C)O` [E, erythromycin A] here?
**A.** 50 µg/mL (≈ 68.1 µM)

**Q.** What about the MIC [3] of the same compound?
**A.** 1 µg/mL (≈ 1.36 µM)

**Q.** What about the MIC [4] of the same compound?
**A.** 25 µg/mL (≈ 34.1 µM)

**Q.** What about the MIC ([5]; Pseudomonas aeruginosa, NCTC10490, read-out: minimum inhibitory concentrations (MIC)) of the same compound?
**A.** 50 µg/mL (≈ 68.1 µM)

**Q.** What about the MIC ([6]; Klebsiella pneumoniae, ATCC10031, read-out: minimum inhibitory concentrations (MIC)) of the same compound?
**A.** 5 µg/mL (≈ 6.81 µM)

**Q.** And the MIC ([7]; ATCC8043, read-out: minimum inhibitory concentrations (MIC))?
**A.** 0.05 µg/mL (≈ 0.0681 µM)

**Q.** And the MIC ([8]; Staphylococcus epidermidis, ATCC12228, read-out: minimum inhibitory concentrations (MIC))?
**A.** 0.1 µg/mL (≈ 0.136 µM)

**Q.** What about the MIC [9] of the same compound?
**A.** 25 µg/mL (≈ 34.1 µM)

**Q.** What about the MIC ([10]; Bacillus subtilis, ATCC6633, read-out: minimum inhibitory concentrations (MIC)) of the same compound?
**A.** 0.05 µg/mL (≈ 0.0681 µM)

**Q.** What about the MIC ([11]; Staphylococcus aureus, ATCC6538, read-out: minimum inhibitory concentrations (MIC)) of the same compound?
**A.** 0.5 µg/mL (≈ 0.681 µM)

**Q.** What about the MIC ([12]; Micrococcus flavus, ATCC10240, read-out: minimum inhibitory concentrations (MIC)) of the same compound?
**A.** 0.05 µg/mL (≈ 0.0681 µM)

**Q.** And the MIC [13]?
**A.** 0.05 µg/mL (≈ 0.0681 µM)

**Q.** What about the MIC ([14]; exposure time 0 hours) of the same compound?
**A.** 0.5 µg/mL (≈ 0.681 µM)

**Q.** What about the MIC [14, 18] of the same compound?
**A.** 7.5 µg/mL (≈ 10.2 µM)

**Q.** And the MIC ([14]; exposure time 1 hour, 1 N HCl)?
**A.** 10 µg/mL (≈ 13.6 µM)

**Q.** What about the MIC ([14]; exposure time 2 hours, 1 N HCl) of the same compound?
**A.** 10 µg/mL (≈ 13.6 µM)

**Q.** What about the MIC ([14]; exposure time 3 hours, 1 N HCl) of the same compound?
**A.** 10 µg/mL (≈ 13.6 µM)

**Q.** And the MIC ([14]; exposure time 6 hours, 1 N HCl)?
**A.** 20 µg/mL (≈ 27.3 µM)

**Q.** And the MIC ([15]; Corynebacterium xerosis, NCTC9755, read-out: minimum inhibitory concentrations (MIC))?
**A.** 0.1 µg/mL (≈ 0.136 µM)

**Q.** What about the MIC [16] of the same compound?
**A.** 0.1 µg/mL (≈ 0.136 µM)

**Q.** What does the source list for `CC[C@H]1OC(=O)[C@H](C)[C@@H](O[C@H]2C[C@@](C)(OC)[C@@H](OC(C)=O)[C@H](C)O2)[C@H](C)[C@@H](O[C@@H]2O[C@H](C)C[C@H](N(C)C)[C@H]2OC(C)=O)[C@](C)(O)C[C@@H](C)CN(C(C)=O)[C@H](C)[C@@H](O)[C@]1(C)O` [Compound III, 2',4"-N-triacetyl-11-aza-10-deoxo-10-dihydroerythromycin A]?
**A.** MIC [7, 19]: 125 µg/mL (≈ 145 µM); MIC [8, 20]: 200 µg/mL (≈ 232 µM); MIC [10, 21]: 175 µg/mL (≈ 203 µM); MIC [11, 22]: 150 µg/mL (≈ 174 µM); MIC [12, 23]: 50 µg/mL (≈ 58.1 µM); MIC [13]: 10 µg/mL (≈ 11.6 µM); MIC [16]: 200 µg/mL (≈ 232 µM)

**Q.** Which results are given for `CC[C@H]1OC(=O)[C@H](C)[C@@H](O[C@H]2C[C@@](C)(OC)[C@@H](O)[C@H](C)O2)[C@H](C)[C@@H](O[C@@H]2O[C@H](C)C[C@H](N(C)C)[C@H]2O)[C@](C)(O)C[C@@H](C)C(=NO)[C@H](C)[C@@H](O)[C@]1(C)O` [EO, erythromycin A oxime, reference compound]?
**A.** MIC ([2]; in vitro, Salmonella panama): 50 µg/mL (≈ 66.8 µM); MIC [3]: 1 µg/mL (≈ 1.34 µM); MIC [4]: 25 µg/mL (≈ 33.4 µM); MIC ([5]; NCTC10490, in vitro, Pseudomonas aeruginosa NCTC 10490, read-out: minimum inhibitory concentrations (MIC)): 50 µg/mL (≈ 66.8 µM); MIC ([6]; ATCC10031, in vitro, Klebsiella pneumoniae ATCC 10031, read-out: minimum inhibitory concentrations (MIC)): 5 µg/mL (≈ 6.68 µM); LD50 [17]: 74 mg/kg; MIC [7, 19]: 0.05 µg/mL (≈ 0.0668 µM); MIC [8, 20]: 0.1 µg/mL (≈ 0.134 µM); MIC [9]: 50 µg/mL (≈ 66.8 µM); MIC [10, 21]: 0.1 µg/mL (≈ 0.134 µM); MIC [11, 22]: 0.5 µg/mL (≈ 0.668 µM); MIC [12, 23]: 0.1 µg/mL (≈ 0.134 µM); MIC [13]: 0.05 µg/mL (≈ 0.0668 µM); MIC ([14]; exposure time 0 hours): 0.1 µg/mL (≈ 0.134 µM); MIC [14, 18]: 0.1 µg/mL (≈ 0.134 µM); MIC ([14]; exposure time 1 hour, 1 N HCl): 0.1 µg/mL (≈ 0.134 µM); MIC ([14]; exposure time 2 hours, 1 N HCl): 0.5 µg/mL (≈ 0.668 µM); MIC ([14]; exposure time 3 hours, 1 N HCl): 0.5 µg/mL (≈ 0.668 µM); MIC ([14]; exposure time 6 hours, 1 N HCl): 0.5 µg/mL (≈ 0.668 µM); MIC ([15]; NCTC9755, in vitro, Corynebacterium xerosis NCTC 9755, read-out: minimum inhibitory concentrations (MIC)): 0.1 µg/mL (≈ 0.134 µM); MIC [16]: 0.1 µg/mL (≈ 0.134 µM)

**Q.** Which pKa [1] does the source give for `CCC(=O)N1C[C@H](C)C[C@@](C)(O)[C@H](O[C@@H]2O[C@H](C)C[C@H](N(C)C)[C@H]2O)[C@@H](C)[C@H](O[C@H]2C[C@@](C)(OC)[C@@H](O)[C@H](C)O2)[C@@H](C)C(=O)O[C@H](CC)[C@@](C)(O)[C@H](O)[C@H]1C` [Compound V, N-propionyl-11-aza-10-deoxo-10-dihydroerythroycin A] here?
**A.** 8.6
